From US20250326753A1, “DUAL CXCR4-BTK INHIBITORS” (X4 Pharmaceuticals, Inc., priority 2022, published 2025) come the findings set out here.

Where two headings read alike, the source gives them in different places.

Holding throughout (format): biochemical
Experiment [1] deals with T1, ERBB4 (Homo sapiens, UniProt Q15303).
T1 construct: purchased Reaction Biology Europe GmbH
Put plainly: PanQinase kinase panel: ERBB4. The conditions noted are these: read-out: INHIBITORY EFFECT @ 1 uM: ERBB4. On the procedure: (§1) Screening procedures were performed in accordance with the company's on-line protocol [accessed on-line Mar.
(§2) For each kinase, the median value of the cpm of three wells was defined as “low control” (n=3). This value reflects unspecific binding of radioactivity to the plate in the absence of a protein kinase but in the presence of the substrate. Additionally, for each kinase the median value of the cpm of three other wells was taken as the “high control,” i.e. full activity in the absence of any inhibitor (n=3). The difference between high and low control of each enzyme was taken as 100% activity.
(§3) As part of the data evaluation the low control of each kinase was subtracted from the high control value as well as from their corresponding “compound values”.

Experiment [2] has as its target T2, TRKA (Homo sapiens, UniProt P04629).
T2 construct: purchased Reaction Biology Europe GmbH
Put plainly: PanQinase kinase panel: TRKA. On the procedure: as §1, §2
(§4) As part of the data evaluation the low control of each kinase was subtracted from the high control value as well as from their corresponding “compound values”. The residual activity (in %) for each compound well was calculated by using the following formula: Res. Activity (%)=100×[(signal of compound−low control)/(high control−low control)].

Experiment [3] deals with T3, JAK3 (Homo sapiens, UniProt P52333).
T3 construct: purchased Reaction Biology Europe GmbH
T3 sequence (P52333 1-1124): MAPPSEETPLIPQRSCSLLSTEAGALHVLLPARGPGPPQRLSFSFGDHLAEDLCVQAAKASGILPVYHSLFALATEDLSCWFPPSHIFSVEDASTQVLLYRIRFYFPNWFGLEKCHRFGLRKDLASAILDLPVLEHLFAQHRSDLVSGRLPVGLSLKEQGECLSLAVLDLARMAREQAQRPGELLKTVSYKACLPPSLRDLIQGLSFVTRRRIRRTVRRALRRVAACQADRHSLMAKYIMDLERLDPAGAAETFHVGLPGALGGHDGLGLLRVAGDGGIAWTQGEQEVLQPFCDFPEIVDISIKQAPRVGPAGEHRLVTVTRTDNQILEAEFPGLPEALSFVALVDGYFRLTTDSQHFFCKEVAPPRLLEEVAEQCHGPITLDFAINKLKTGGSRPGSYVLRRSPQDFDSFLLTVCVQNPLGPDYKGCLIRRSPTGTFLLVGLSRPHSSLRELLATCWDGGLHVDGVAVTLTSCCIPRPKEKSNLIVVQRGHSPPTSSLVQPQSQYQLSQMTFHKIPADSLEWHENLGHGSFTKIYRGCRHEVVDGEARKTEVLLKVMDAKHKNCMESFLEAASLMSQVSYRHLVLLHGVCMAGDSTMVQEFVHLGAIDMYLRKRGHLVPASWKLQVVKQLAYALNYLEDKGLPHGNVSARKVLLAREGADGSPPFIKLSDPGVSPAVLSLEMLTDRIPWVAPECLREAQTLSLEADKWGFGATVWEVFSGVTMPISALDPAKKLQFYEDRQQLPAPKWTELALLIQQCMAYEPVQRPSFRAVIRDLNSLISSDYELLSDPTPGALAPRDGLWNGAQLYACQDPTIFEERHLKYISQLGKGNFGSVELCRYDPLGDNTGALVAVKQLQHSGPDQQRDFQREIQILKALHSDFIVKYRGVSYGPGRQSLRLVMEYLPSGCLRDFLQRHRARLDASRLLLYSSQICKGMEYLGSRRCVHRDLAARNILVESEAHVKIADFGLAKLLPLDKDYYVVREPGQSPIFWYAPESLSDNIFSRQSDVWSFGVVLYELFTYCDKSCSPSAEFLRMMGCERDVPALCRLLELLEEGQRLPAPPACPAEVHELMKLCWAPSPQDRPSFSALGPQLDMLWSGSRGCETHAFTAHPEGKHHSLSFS
Put plainly: PanQinase kinase panel: JAK3. To be noted: for inhibition at 1 µM: read-out: INHIBITORY EFFECT @ 1 uM: JAK3. On the procedure:
as §1, §2, §3

For experiment [4], the target named is T4, MUSK (Homo sapiens, UniProt O15146).
T4 construct: purchased Reaction Biology Europe GmbH
T4 sequence (O15146 24-869): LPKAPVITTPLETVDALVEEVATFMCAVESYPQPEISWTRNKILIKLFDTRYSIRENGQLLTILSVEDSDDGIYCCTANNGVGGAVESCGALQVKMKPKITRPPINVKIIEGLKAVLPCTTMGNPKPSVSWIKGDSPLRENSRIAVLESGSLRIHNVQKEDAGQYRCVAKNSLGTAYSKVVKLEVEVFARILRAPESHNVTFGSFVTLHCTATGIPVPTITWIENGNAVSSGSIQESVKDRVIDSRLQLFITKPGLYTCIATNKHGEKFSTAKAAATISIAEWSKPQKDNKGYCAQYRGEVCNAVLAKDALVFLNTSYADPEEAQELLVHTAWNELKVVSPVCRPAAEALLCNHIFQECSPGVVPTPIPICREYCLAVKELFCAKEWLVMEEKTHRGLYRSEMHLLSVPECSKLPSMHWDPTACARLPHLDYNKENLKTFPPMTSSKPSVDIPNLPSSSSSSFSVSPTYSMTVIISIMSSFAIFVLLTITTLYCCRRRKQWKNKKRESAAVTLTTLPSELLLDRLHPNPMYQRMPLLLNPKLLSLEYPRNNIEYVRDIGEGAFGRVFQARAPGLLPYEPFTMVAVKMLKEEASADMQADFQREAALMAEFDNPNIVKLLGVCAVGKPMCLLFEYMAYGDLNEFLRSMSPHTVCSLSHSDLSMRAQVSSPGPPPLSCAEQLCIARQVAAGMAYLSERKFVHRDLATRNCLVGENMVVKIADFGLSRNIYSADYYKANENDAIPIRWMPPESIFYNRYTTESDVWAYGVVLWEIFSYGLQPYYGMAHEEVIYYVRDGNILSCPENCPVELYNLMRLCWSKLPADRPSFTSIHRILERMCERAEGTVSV
Kind of experiment: PanQinase kinase panel: MUSK. The protocol: as §1, §2, §4

[5] abbreviates: at 1 μM, read-out: inhibition of TRKA.
The mark [6] stands for this setting: read-out: INHIBITORY EFFECT @ 1 uM: TRKA.
[7] abbreviates: read-out: INHIBITORY EFFECT @ 1 uM: MUSK.

T2 sequence (P04629 33-796): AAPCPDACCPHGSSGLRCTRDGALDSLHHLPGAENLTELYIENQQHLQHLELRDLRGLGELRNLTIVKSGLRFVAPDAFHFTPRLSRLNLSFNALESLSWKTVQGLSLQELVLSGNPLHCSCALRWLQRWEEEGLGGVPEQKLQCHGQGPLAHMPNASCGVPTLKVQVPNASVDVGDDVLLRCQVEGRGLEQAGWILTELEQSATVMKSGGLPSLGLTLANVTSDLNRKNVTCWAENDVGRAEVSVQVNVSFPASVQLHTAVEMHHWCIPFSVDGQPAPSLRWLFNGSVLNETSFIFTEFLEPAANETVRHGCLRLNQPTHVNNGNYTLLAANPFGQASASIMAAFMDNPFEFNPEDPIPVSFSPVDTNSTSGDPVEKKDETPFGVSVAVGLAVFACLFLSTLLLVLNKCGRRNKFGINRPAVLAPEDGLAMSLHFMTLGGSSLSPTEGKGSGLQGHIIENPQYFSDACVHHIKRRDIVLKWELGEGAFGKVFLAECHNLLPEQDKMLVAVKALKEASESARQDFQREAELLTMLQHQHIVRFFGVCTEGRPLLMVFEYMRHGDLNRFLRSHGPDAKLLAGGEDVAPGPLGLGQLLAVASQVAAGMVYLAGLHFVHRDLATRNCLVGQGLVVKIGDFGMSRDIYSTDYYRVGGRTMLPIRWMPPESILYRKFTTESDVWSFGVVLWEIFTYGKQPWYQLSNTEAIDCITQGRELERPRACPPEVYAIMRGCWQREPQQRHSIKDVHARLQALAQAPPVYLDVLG
T1 sequence (Q15303 26-1308): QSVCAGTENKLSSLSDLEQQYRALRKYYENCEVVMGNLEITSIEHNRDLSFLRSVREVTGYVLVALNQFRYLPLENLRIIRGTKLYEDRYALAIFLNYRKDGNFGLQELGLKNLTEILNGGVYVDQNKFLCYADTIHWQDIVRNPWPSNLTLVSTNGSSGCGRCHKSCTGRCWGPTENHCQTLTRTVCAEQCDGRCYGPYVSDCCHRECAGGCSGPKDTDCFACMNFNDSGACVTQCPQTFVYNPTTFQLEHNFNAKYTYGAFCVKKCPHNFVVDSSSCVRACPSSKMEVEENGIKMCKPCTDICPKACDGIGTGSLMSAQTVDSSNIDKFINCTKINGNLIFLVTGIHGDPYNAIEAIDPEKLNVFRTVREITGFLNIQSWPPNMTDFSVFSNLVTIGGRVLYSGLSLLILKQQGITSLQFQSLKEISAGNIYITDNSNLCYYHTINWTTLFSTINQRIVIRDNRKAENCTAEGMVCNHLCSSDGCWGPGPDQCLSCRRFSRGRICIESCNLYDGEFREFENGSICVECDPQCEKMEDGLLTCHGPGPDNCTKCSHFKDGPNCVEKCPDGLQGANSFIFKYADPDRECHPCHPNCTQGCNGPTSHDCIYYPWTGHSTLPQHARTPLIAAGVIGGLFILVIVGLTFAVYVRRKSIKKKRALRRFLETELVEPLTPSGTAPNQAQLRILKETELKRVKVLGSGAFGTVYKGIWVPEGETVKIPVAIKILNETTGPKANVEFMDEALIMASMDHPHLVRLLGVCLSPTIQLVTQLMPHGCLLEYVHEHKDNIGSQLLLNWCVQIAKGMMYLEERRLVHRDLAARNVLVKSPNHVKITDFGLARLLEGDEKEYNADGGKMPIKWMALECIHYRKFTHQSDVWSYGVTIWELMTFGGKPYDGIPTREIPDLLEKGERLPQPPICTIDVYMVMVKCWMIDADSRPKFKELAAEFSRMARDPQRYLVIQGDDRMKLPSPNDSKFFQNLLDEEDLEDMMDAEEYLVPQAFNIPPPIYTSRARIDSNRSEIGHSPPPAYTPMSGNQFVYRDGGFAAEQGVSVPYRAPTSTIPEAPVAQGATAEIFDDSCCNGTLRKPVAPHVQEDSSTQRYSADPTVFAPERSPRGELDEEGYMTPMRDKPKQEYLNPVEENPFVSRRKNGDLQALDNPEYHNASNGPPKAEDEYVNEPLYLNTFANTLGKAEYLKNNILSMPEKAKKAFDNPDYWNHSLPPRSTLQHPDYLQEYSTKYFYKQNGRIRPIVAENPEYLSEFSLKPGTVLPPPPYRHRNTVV

For the molecule `O=C(c1ccc(Oc2ccccc2)cc1Cl)c1c[nH]c2ncnc(N[C@@H]3CC[C@@H](CO)OC3)c12` [ARQ-531, (2-chloro-4-phenoxyphenyl) (4-(((3R,6S)-6-(hydroxymethyl)tetrahydro-2H-pyran-3-yl)amino)-7H-pyrrolo[2,3-d]pyrimidin-5-yl) methanone], the inhibition at 1 µM was 90 to 100% in experiment [1], at least 50% in experiment [2] (setting [5]), 90 to 100% in experiment [2] (setting [6]) and 50 to 69% in experiment [3].

With `Cc1cccnc1[C@H]1CCC[C@@H](c2ncccc2C)N1CCN1CCN(C(=O)c2ccc(-c3cc4c(-c5cccc(NC(=O)c6ccccc6)c5C)ncnc4[nH]3)cc2)CC1` [Compound I-10, N-(3-(6-(4-(4-(2-((2R,6S)-2,6-bis(3-methylpyridin-2-yl)piperidin-1-yl)ethyl)piperazine-1-carbonyl)phenyl)-7H-pyrrolo[2,3-d]pyrimidin-4-yl)-2-methylphenyl)benzamide], the inhibition at 1 µM in experiment [1] is under 50%; in experiment [2] (setting [5]), 50 to 89%; in experiment [2] (setting [6]), 70 to 89%; in experiment [4] (at 1 μM, read-out: inhibition of MUSK) it was 50 to 89%; in experiment [4] (setting [7]), 70 to 89%; in experiment [3], under 50%.

As to `COc1ccc(F)cc1C(=O)NCc1ccc(-c2nn([C@@H](C)C(F)(F)F)c(N)c2C(N)=O)cc1` [LOXO-305, pirtobrutinib], the inhibition at 1 µM in experiment [1] was 50 to 69%; in experiment [2] (setting [6]), under 50%; in experiment [4] (setting [7]), under 50%; in experiment [3] it was under 50%.

As for `C=CC(=O)N1CCC([C@@H]2CCNc3c(C(N)=O)c(-c4ccc(Oc5ccccc5)cc4)nn32)CC1` [Zanubrutinib, (7S)-2-(4-phenoxyphenyl)-7-(1-prop-2-enoylpiperidin-4-yl)-4,5,6,7-tetrahydropyrazolo[1,5-a]pyrimidine-3-carboxamide], the inhibition at 1 µM in experiment [2] (setting [6]) and in experiment [4] (setting [7]) was under 50% in each case. Moreover, in experiment [3] (1 uM), the “INHIBITORY EFFECT @ 1 uM: JAK3” value is given as “+ (Below 50% Inhibition at 1 uM)”.
